# Test results reported in patent US10683297B2 (Sunshine Lake Pharma Co., Ltd., priority 2017, dated 2020).
# How the values were obtained:
# Aurora-A (h) = molecular target: T1, Aurora-A (h) (Homo sapiens, UniProt O14965); assay: Aurora-A (h) kinase assay; assay type: biochemical; conditions: [γ-33P-ATP] 10 μM or KM values; 40 minutes at room temperature
# T1 construct: purchased Millipore UK Ltd (assays performed there as a service)
# T1 sequence (O14965 1-403): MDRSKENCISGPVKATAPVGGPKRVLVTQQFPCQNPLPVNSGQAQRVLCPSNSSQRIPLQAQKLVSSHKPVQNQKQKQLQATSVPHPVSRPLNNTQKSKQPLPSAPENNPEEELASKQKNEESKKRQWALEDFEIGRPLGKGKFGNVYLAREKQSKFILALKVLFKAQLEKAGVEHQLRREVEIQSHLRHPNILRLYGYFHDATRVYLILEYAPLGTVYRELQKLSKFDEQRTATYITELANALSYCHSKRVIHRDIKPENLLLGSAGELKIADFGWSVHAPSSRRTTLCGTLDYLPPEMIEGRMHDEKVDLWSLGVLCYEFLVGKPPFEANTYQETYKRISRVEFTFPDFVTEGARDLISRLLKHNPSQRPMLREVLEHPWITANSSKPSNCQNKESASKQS
# Experimental: (§1) The above assay procedure can be used to determine the IC50 for inhibition and/or the inhibition constant, Ki. […] The IC50 value is estimated by preparing a 10 point curve using a ½ log dilution series (for example, a typical curve may be prepared using the following compound concentrations: 3 μM, 1 μM, 0.3 μM, 0.1 μM, 0.03 μM, 0.01 μM, 0.003 μM, 0.001 μM, 0.0003 μM and 0 μM).
# Aurora-A (h) is incubated with 8 mM MOPS pH 7.0, 0.2 mM EDTA, 200 μM LRRASLG (Kemptide), 10 mM MgAcetate and [γ-^33P-ATP] […] The reaction is initiated by the addition of the MgATP mix. After incubation for 40 minutes at room temperature, the reaction is stopped by the addition of 3% phosphoric acid solution. 10 μL of the reaction is then spotted onto a P30 filtermat and washed three times for 5 minutes in 75 mM phosphoric acid and once in methanol prior to drying and scintillation counting.
# (§2) The kinase assays described herein were performed at Millipore UK Ltd, Dundee Technology Park, Dundee DD2 1SW, UK.
# JAK1 (h) = molecular target: T2, JAK1 (h) (Homo sapiens, UniProt P23458); assay: JAK1 (h) kinase assay; assay type: biochemical; conditions: [γ-33P-ATP] 10 μM or KM values; 40 minutes at room temperature
# T2 construct: purchased Millipore UK Ltd (assays performed there as a service)
# T2 sequence (P23458 whole entry): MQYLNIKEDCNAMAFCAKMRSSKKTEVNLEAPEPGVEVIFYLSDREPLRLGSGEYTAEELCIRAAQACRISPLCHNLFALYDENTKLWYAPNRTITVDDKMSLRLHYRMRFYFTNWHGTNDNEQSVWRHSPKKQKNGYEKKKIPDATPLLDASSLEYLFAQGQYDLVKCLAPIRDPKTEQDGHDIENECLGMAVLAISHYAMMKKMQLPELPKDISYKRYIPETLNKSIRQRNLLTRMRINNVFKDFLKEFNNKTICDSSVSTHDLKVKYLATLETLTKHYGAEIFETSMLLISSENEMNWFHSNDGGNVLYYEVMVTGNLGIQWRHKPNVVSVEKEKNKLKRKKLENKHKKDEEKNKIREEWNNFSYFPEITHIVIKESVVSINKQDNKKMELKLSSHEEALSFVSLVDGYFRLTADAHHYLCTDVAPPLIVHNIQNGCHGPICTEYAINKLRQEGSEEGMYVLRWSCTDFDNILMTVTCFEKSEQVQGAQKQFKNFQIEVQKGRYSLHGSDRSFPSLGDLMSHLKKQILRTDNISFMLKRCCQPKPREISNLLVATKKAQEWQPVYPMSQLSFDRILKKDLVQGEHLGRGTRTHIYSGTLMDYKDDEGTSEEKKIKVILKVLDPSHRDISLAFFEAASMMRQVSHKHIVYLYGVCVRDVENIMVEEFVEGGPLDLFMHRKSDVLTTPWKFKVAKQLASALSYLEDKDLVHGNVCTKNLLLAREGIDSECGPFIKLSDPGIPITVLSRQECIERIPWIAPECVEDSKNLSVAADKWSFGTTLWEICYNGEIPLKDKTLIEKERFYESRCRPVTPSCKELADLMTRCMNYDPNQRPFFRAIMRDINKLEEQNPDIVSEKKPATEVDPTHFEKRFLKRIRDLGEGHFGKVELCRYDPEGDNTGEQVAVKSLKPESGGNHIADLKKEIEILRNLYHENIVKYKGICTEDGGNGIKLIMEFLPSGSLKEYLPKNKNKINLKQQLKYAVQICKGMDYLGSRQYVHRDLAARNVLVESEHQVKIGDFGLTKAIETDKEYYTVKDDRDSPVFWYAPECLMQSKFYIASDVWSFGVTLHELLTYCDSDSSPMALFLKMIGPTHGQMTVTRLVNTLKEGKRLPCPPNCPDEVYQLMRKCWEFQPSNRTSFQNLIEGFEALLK
# Method in brief: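 Radiometric filter-binding assay: human JAK1 incubated 40 min at room temperature in 20 mM Tris/HCl pH 7.5, 0.2 mM EDTA, 500 μM peptide substrate, 10 mM Mg acetate, with [γ-33P]ATP at 10 μM or KM. Reaction stopped with phosphoric acid; P30 filtermat scintillation counting.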
# Aurora-B (h) = molecular target: T3, Aurora-B (h) (Homo sapiens, UniProt Q96GD4); assay: Aurora-B (h) kinase assay; assay type: biochemical; conditions: [γ-33P-ATP] 10 μM or KM values; 40 minutes at room temperature
# T3 construct: purchased Millipore UK Ltd (assays performed there as a service)
# T3 sequence (Q96GD4 whole entry): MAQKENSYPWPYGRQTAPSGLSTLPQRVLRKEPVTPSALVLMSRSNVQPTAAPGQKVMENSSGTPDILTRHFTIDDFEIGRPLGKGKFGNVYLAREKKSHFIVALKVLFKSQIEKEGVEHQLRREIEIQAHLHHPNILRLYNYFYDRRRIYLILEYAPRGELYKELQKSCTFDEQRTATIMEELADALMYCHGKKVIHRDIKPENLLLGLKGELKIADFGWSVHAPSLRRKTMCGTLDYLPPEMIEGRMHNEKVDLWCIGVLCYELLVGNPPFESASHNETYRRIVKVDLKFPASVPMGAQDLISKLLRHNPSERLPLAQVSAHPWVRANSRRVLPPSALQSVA
# Experimental: as §1
# Aurora-B (h) is incubated with 8 mM MOPS pH 7.0, 0.2 mM EDTA, 30 μM […], 10 mM MgAcetate and [γ-^33PATP] […] The reaction is initiated by the addition of the MgATP mix. After incubation for 40 minutes at room temperature, the reaction is stopped by the addition of a 3% phosphoric acid solution. 10 μL of the reaction is then spotted onto a P30 filtermat and washed three times for 5 minutes in 75 mM phosphoric acid and once in methanol prior to drying and scintillation counting.
# as §2
# [1] = Pharmacokinetics after intravenous and oral administration in rats; assay type: in vivo; conditions: for Clearance (CL) after iv dosing / AUC(0-t) / half-life / Vd: dose 1 mg/kg (Ex. 9: 0.6, Ex. 18: 0.5, Ex. 50: 0.96 mg/kg), iv dosing; for AUC(0-t) / half-life / Vd / bioavailability: rat, plasma; for Vd: read-out: Vss; for bioavailability: oral (generally 5 or 10 mg/kg) versus iv dosing, read-out: F (oral bioavailability)
# Method in brief: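 Rats dosed i.v. (about 0.5, 0.6, 1 or 2 mg/kg) or p.o. (5 or 10 mg/kg) as solution, suspension or capsule. Plasma sampled over 24 h and quantified by LC/MS/MS in MRM mode with ESI.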
Compound,IC50 (Aurora-A (h)) [nM],IC50 (JAK1 (h)) [nM],IC50 (Aurora-B (h)) [nM],Clearance (CL) after iv dosing [1] [L/h/kg],AUC(0-t) [1] [ng·h/mL],half-life [1] [min],Vd [1] [L/kg],bioavailability [1] [%]
"Cc1cnc2cc(Nc3ncc(Cl)c(NC4CCN(c5ccc(C#N)nn5)CC4)n3)ccn12 [Example 12, 6-(4-((5-chloro-2-((3-methylimidazo[1,2-a]pyridin-7-yl)amino)pyrimidin-4-yl)amino)piperidin-1-yl)pyridazine-3-carbonitrile]",281,0.4,115,,,,,
"CC(C)(O)c1nc2cc(Nc3ncc(Cl)c(NC4CCN(c5ccc(C#N)nn5)CC4)n3)ccn2n1 [Example 55, 6-(4-((5-chloro-2-((2-(2-hydroxypropan-2-yl)-[1,2,4]triazolo[1,5-a]pyridin-7-yl)amino)pyrimidin-4-yl)amino)piperidin-1-yl)pyridazine-3-carbonitrile]",> 300,0.9,200,,,,,
"N#Cc1ccc(N2CCC(Nc3nc(Nc4ccc5c(c4)nnn5CC4CC4)ncc3Cl)CC2)nc1 [Example 60, 6-(4-((5-chloro-2-((1-(cyclopropylmethyl)-1H-benzo[d][1,2,3]triazol-5-yl)amino)pyrimidin-4-yl)amino)piperidin-1-yl)nicotinonitrile]",216,0.4,216,,,,,
"CC(O)Cn1cnc2cc(Nc3ncc(Cl)c(NC4CCN(c5ccc(C#N)cn5)CC4)n3)ccc21 (stereo not shown) [Example 61, 6-(4-((5-chloro-2-((1-(2-hydroxypropyl)-1H-benzo[d]imidazol-5-yl)amino)pyrimidin-4-yl)amino)piperidin-1-yl)nicotinonitrile]",113,< 0.3,50,,,,,
"CC(C)(O)Cc1nc2ccc(Nc3ncc(Cl)c(NC4CCN(c5ccc(C#N)cn5)CC4)n3)cn2n1 [Example 67, 6-(4-((5-chloro-2-((2-(2-hydroxy-2-methylpropyl)-[1,2,4]triazolo[1,5-a]pyridin-6-yl)amino)pyrimidin-4-yl)amino)piperidin-1-yl)nicotinonitrile]",987,0.6,793,0.67,1470,87,1.25,49.7
"CC(C)(O)Cn1nnc2cc(Nc3ncc(Cl)c(NC4CCN(c5ccc(C#N)cn5)CC4)n3)ccc21 [Example 69, 6-(4-((5-chloro-2-((1-(2-hydroxy-2-methylpropyl)-1H-benzo[d][1,2,3]triazol-5-yl)amino)pyrimidin-4-yl)amino)piperidin-1-yl)nicotinonitrile]",40,0.5,45,1.33,752,56.4,1.7,69.8
"CC(C)(O)Cc1nc2cc(Nc3ncc(Cl)c(NC4CCN(c5ccc(C#N)nn5)CC4)n3)ccn2n1 [Example 77, 6-(4-((5-chloro-2-((2-(2-hydroxy-2-methylpropyl)-[1,2,4]triazolo[1,5-a]pyridin-7-yl)amino)pyrimidin-4-yl)amino)piperidin-1-yl)pyridazine-3-carbonitrile]",699,0.7,132,9.07,1860,50.6,0.623,
"CC(C)(O)Cc1nc2cc(Nc3ncc(Cl)c(NC4CCN(c5ccc(C#N)cn5)CC4)n3)ccn2n1 [Example 78, 6-(4-((5-chloro-2-((2-(2-hydroxy-2-methylpropyl)-[1,2,4]triazolo[1,5-a]pyridin-7-yl)amino)pyrimidin-4-yl)amino)piperidin-1-yl)nicotinonitrile]",561,1,185,11.2,1490,59.2,0.795,84.8
